The values that follow are results of earlier work, collected in patent US12577179B2, “Methods and compositions for soil regeneration and improved soil hydrology” (Locus Solutions IPCo, LLC, priority 2021, dated 2026).

The conditions of the data set: surfactant micelles; no method or source given.
In the case of `CCCCCCCC/C=C\CCCCCCCC(=O)OCCOCC(OCCO)C1OCC(OCCO)C1OCCO` (stereo not shown) [Tween-80], the micelle size is listed as 11.7 nm.

On to `CCCCCCCCCCCCOS(=O)(=O)[O-].[Na+]` [sodium dodecyl sulfate], for which the micelle size was 3.5-6 nm. Regarding Nonidet P40, the micelle size is 15.4 nm. In the case of Triton X-100, the micelle size is reported as 7.5 nm.
